Measurements published in patent US11873298B2, “Compounds and uses thereof” (JANSSEN PHARMACEUTICA NV, priority 2017, dated 2024).

Experiments:
SCD5 = target: T1, SCD5 (Homo sapiens, UniProt Q86SK9); assay: Growth inhibition of humanized yeast strain expressing SCD5 as sole desaturase; type: cell-based; settings: humanized yeast strain, 40 h
T1 construct: host or cells: S. cerevisiae ole1Δ strain (W303 pdr1Δ pdr3Δ background), plasmid pRS316 with TDH3 promoter and CYC1 terminator
T1 sequence (Q86SK9 1-330): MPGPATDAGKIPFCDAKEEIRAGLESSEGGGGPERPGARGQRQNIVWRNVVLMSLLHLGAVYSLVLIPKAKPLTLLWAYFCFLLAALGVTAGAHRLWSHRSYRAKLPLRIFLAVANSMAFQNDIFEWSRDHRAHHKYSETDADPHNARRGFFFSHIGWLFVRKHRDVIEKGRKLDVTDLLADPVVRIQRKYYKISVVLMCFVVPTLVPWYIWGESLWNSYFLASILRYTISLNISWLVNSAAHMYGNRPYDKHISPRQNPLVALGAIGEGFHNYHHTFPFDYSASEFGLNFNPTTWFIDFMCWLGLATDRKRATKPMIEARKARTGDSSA
How it was run: (§1)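 Plasmid-complemented ole1Δ yeast, drug-pump deleted (pdr1Δ pdr3Δ), depend solely on the introduced Ole1, SCD1 or SCD5 desaturase. Compounds are added from DMSO to cells in uracil-free galactose medium, 2× density 0.02, and OD600 is read after 24 h or 40 h respectively.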

SCD1 = target: T2, SCD1 (Homo sapiens, UniProt O00767); assay: Growth inhibition of humanized yeast strain expressing SCD1 as sole desaturase; type: cell-based; settings: humanized yeast strain, 40 h
T2 construct: host or cells: S. cerevisiae ole1Δ strain (W303 pdr1Δ pdr3Δ background), plasmid pRS316 with TDH3 promoter and CYC1 terminator
T2 sequence (O00767 1-359): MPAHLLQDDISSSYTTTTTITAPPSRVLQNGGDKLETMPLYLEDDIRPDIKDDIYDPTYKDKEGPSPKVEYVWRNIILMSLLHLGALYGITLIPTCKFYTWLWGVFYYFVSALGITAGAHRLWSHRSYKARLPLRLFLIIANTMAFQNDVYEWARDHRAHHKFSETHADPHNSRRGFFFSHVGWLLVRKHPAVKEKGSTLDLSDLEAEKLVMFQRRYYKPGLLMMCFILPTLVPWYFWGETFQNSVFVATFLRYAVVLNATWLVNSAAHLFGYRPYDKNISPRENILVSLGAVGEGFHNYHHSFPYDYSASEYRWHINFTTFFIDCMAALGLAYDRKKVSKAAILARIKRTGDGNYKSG
How it was run: as §1

Compound	IC50 (SCD5) [µM]	IC50 (SCD1) [µM]
COC(=O)N1CCN(c2noc(-c3ccnc(OC4COC4)c3)n2)CC1 [Compound 1002]	5.05	> 45
CC(C)(C)OC(=O)N1CCC(c2noc(-c3ccnc(C4CCCO4)c3)n2)CC1 (stereo not shown) [Compound 1003]	0.457	> 45
COC(=O)N1CCC(c2noc(-c3ccc4cnn(C5COC5)c4c3F)n2)CC1 [Compound 1004]	0.297	> 45
CC(C)(C)OC(=O)N1CCC(c2noc(-c3ccc4oc(=O)n(C5COC5)c4c3)n2)CC1 [Compound 1005]	0.01	> 45
CC(C)(C)OC(=O)N1CCC(c2noc(-c3ccc(OC4COC4)c(NC4COC4)c3)n2)CC1 [Compound 1006]	0.637	> 45
COC(=O)N1CCN(c2noc(-c3ccnc(OC(CO)CO)c3)n2)CC1 [Compound 1007]	> 45	> 45
CC1(OC(=O)N2CCN(c3noc(-c4ccnc(NC5COC5)c4)n3)CC2)CC1 [Compound 1008]	2.02	> 45
CC(C)(C)OC(=O)N1CCC(c2noc(-c3ccc4oc(=O)[nH]c4c3)n2)CC1 [Compound 1009]	9.51	> 45
CC(C)(C)OC(=O)N1CC=C(c2ccc(-c3ccc4cnn(C5COC5)c4c3)nc2)CC1 [Compound 1010]	0.816	> 45
CC(C)(C)OC(=O)N1CCN(c2noc(-c3ccc4cnn(C5COC5)c4c3)n2)CC(F)(F)C1 [Compound 1012]	0.01	15
COC(=O)N1CCN(c2noc(-c3cccc(OC4COC4)c3)n2)CC1 [Compound 1013]	0.367	> 45
COC(=O)N1CCC(c2nc(-c3ccc4cnn(C5CS(=O)(=O)C5)c4c3)no2)CC1 [Compound 1014]	4.82	> 45
COC(=O)N1CCC(c2noc(-c3ccnc(C4CCOC4)c3)n2)CC1 (stereo not shown) [Compound 1015]	0.429	> 45
CC1(OC(=O)N2CCC(c3noc(-c4ccnc(C5CCOC5)c4)n3)CC2)CC1 (stereo not shown) [Compound 1016]	0.0614	> 45
C[C@@H]1C[C@H](c2noc(-c3ccc4cnn(C5COC5)c4c3)n2)CCN1C(=O)OC(C)(C)C [Compound 1017]	0.01	17.1
C[C@H]1C[C@H](c2noc(-c3ccc4cnn(C5COC5)c4c3)n2)CCN1C(=O)OC(C)(C)C [Compound 1018]	0.01	20.3
C[C@@H]1C[C@@H](c2noc(-c3ccc4cnn(C5COC5)c4c3)n2)CCN1C(=O)OC(C)(C)C [Compound 1019]	0.01	12.2
CC(C)(C)OC(=O)N1CC2(CC(c3noc(-c4ccc5cnn(C6COC6)c5c4)n3)C2)C1 [Compound 1020]	0.17	14.6
O=C(C1CC2(CC2)C1)N1CCC(c2noc(-c3ccc4oc(=O)n(C5COC5)c4c3)n2)CC1 [Compound 1021]	0.223	> 45
CN(c1cc(-c2nc(N3CCN(C(=O)OC(C)(C)C)CC3)no2)ccn1)C1COC1 [Compound 1022]	0.01	> 45
CC(C)C(=O)N1CCC(c2nc(-c3ccc4cnn(C5COC5)c4c3)no2)CC1 [Compound 1023]	0.295	> 45
CC(C)C(=O)N1CCC(c2noc(-c3ccc4cnn(C5CCOC5)c4c3)n2)CC1 (stereo not shown) [Compound 1024]	0.01	> 45
C[C@H]1C[C@@H](c2noc(-c3ccc4cnn(C5COC5)c4c3)n2)CCN1C(=O)OC(C)(C)C [Compound 1025]	0.01	> 45
CC(C)(C)OC(=O)N1CCC(c2cc(-c3ccc4cnn(C5COC5)c4c3)on2)CC1 [Compound 1026]	0.2	3.98
COC(=O)N1CCC(c2cc(-c3ccc4cnn(C5COC5)c4c3)on2)CC1 [Compound 1027]	3.16	> 45
O=C(N1CCC(c2noc(-c3ccc4cnn(C5CCOC5)c4c3)n2)CC1)C1(F)CCC1 (stereo not shown) [Compound 1028]	0.01	0.953
